Data reported in patent US20240360458A1, “TARGETED AND SLOW-RELEASE DRUG CONJUGATE COMPOSITION” (Centre for Eye and Vision Research Limited, priority 2023, published 2024).

Key:
[1] = system: cell surface protein of HCECs; assay: Flow cytometry of aptamer binding to intact vs trypsin-treated HCECs; parameters: species or system human
Protocol: To understand the type of target, the HCECs were treated with trypsin, which degraded surface proteins.
(§1) The cells were then incubated with blocking buffer (1% BSA, 0.1 mg mL^−1 Salmon sperm DNA in PBS) for 30 min at room temperature. After washing with PBS under centrifugation, 3×10^5 cells were incubated with pre-heated Cornea-S1 or Cornea-S2 aptamers or aptamer liposomes at various concentrations in PBS for 30 min at room temperature. After incubation, the cells were rinsed three times with 500 μL of PBS and then resuspended in 200 μL of PBS. The fluorescence signal was analyzed with a NovoCyte Flow Cytometer (Agilent Technologies). The equilibrium dissociation constants (Kd) value of each aptamer or aptamer liposome was obtained by GraphPad Prism 9 according to […]

[2] = system: HCECs in hyperosmolarity medium; assay: Cellular uptake and retention of CsA liposomes in dry eye HCECs model; format: cell-based, human; conditions: DED model
Protocol: To construct a dry eye disease (DED) cell model, HPV-immortalized human corneal epithelial cells (HCECs) (passages 6-10) were maintained in DMEM/F12 medium supplemented with 1% FBS and 1% penicillin/streptomycin at 37° C., 95% humidity, and 5% CO2. The cell medium was changed every 2 days. To establish an in vitro DED model, sodium chloride was added to the culture medium to increase the osmolarity of the medium by 200 mOsM.
HCECs were seeded on glass bottom culture dishes at 10,000 cells/compartment for 24 h. To test the binding of the aptamer to cells, HCECs were incubated with FAM-labelled T30 DNA sequence (negative control), Cornea-S1, or Cornea-S2 aptamers for 30 min. […] HCECs cultured in the isosmotic medium were used as a control. After incubation, the cells were washed 2 times with ice-cold PBS and were then stained with 1 μg mL^−1 Hoechst 33342 in PBS for nucleus staining for 1 min at RT. Fluorescence images were captured at the mid-plane of cells (magnification: 400×) by Nikon Eclipse Ti Inverted Research Microscope. […]
The CsA-loaded liposomes were tested for cellular uptake and retention in a dry eye HCECs model induced by a high osmolarity medium. […] Additionally, liposome retention in cells was assessed by pretreating the cells with liposomes for 4 hours, followed by a 20-hour incubation period in liposome-free medium.

[3] = system: human corneal epithelial cells (HCECs); assay: Flow cytometry binding of FAM-labelled aptamers to HCECs; conditions: FAM-labelled free aptamer, room temperature, read-out: dissociation constant (Kd) of aptamer in HCECs
Protocol: Due to the large size of cornea tissue, it is difficult to do quantitative binding assays. Thus, the binding of FAM-labelled aptamer to human corneal epithelial cells (HCECs) was tested using flow cytometry and fluorescence microscopy. BSA and salmon DNA were added to the blocking buffer to reduce non-specific binding before the incubation with FAM-labelled aptamers.
as §1

[4] = system: human corneal epithelial cells (HCECs); assay: Fluorescence microscopy of FAM-labelled aptamer binding in HCECs; conditions: FAM-labelled DNA, 30 min incubation
Protocol: HCECs were seeded on glass bottom culture dishes at 10,000 cells/compartment for 24 h. To test the binding of the aptamer to cells, HCECs were incubated with FAM-labelled T30 DNA sequence (negative control), Cornea-S1, or Cornea-S2 aptamers for 30 min. […] HCECs cultured in the isosmotic medium were used as a control. After incubation, the cells were washed 2 times with ice-cold PBS and were then stained with 1 μg mL^−1 Hoechst 33342 in PBS for nucleus staining for 1 min at RT. Fluorescence images were captured at the mid-plane of cells (magnification: 400×) by Nikon Eclipse Ti Inverted Research Microscope. The excitation wavelengths of Hoechst, Rh-PE, and FAM were 361 nm, 560 nm, and 498 nm respectively.
Furthermore, the binding of FAM-labelled aptamers in HCECs was visualized under a fluorescence microscope.

[5] = system: unidentified trypsin-sensitive surface protein(s) of human corneal epithelial cells (HCECs) (Homo sapiens); assay: flow
[6] = system: BAC-induced dry eye rabbit model; assay: Tear production (Schirmer tear strips) in BAC-induced dry eye rabbits; format: in vivo, New Zealand White rabbits; conditions: after 4-week 0.1% BAC installation
Protocol: (§2) A 4-week 0.1% BAC treatment could induce stable dry eye condition in rabbits and no severe corneal damage was observed. Thus, a 4-week 0.1% BAC installation followed by a 3-week topical treatment of Restasis® or liposomes was used in the present invention. Corneal fluorescein staining, tear breakup time and tear production were measured before and after BAC installation and weekly throughout the 3-week treatment period.
(§3) Ten male New Zealand White rabbits, weighing between 3 to 3.5 kg each, were procured from Charles River Laboratories. They were housed within the Centralized Animal Facility at the University of Waterloo, where they were subjected to a 12-hour cycle of alternating light and darkness. The temperature was maintained at 23° C.±2° C., with a relative humidity of 60%±10%. The entire experimental procedure was conducted by ethical guidelines and received approval from the Animal Care Committee under Application No. 44737. Upon a 2-week acclimation period, eight rabbits were chosen at random to induce stable dry eye disease. […]
The aqueous tear production was measured with Schirmer Tear Strips (SPORTS WORLD VISION). The strips were placed inside the margin of the nictitating membrane of the lower eyelid of the rabbit for 5 min and the wetting length of the strip was measured as an indication of tear production.

[7] = system: BAC-induced dry eye rabbit model; assay: Tear break-up time (TBUT) in BAC-induced dry eye rabbits; format: in vivo, New Zealand White rabbits; conditions: after 4 weeks of 0.1% BAC installation
Protocol: as §2, §3
Rabbits were sedated by the aforementioned procedure. TBUT was evaluated utilizing a handheld EasyTear® VIEW+ Tearscope with a grid pattern, in conjunction with the S4 OPTIK HR Elite Mega Digital Vision system. […] This measurement was repeated thrice to ensure accuracy, and an average value was calculated for analysis.

[8] = system: human corneal epithelial cells (HCECs); assay: Flow cytometry binding affinity of aptamer CsA liposomes in HCECs; conditions: liposome vs free aptamer
Protocol: The binding affinity of each aptamer liposome in HCECs was measured by flow cytometry. The cells were incubated with liposomes at room temperature, instead of in a 37° C. incubator, to reduce the internalization of liposomes by endocytosis. […] This apparent Kd is much lower than that observed in the free aptamers, for example, Cornea-S1 being 300-fold lower, and this was attributed to the stronger polyvalent binding increasing the avidity of the aptamer-functionalized liposomes.
as §1

[9] = system: BAC-induced dry eye rabbit model; assay: Corneal fluorescein staining in BAC-induced dry eye rabbits; format: in vivo, New Zealand White rabbits; conditions: 4-week 0.1% BAC, then topical treatment twice daily up to 3 weeks
Protocol: as §2
as §3, with “disease. This was achieved through the topical application of 0.1% benzalkonium chloride (BAC) at a dosage of 20 μL per installation. This protocol was repeated twice a day (at 10 a.m. and 5 p.m.) for the subsequent 4 weeks. The remaining two rabbits constituted the control group and received PBS through a similar administration schedule.” for “disease.”

[10] = 3'-FAM, whole-cell apparent Kd, PBS, room temperature, 30 min, trypsin treatment lowers binding

For “Cornea-S2: DNA aptamer from cornea tissue-SELEX, family 2: GACGACTTATGCTTGGGACCTGATCCGGACTACGGTGTCGTC (DNA, backbone not given here; further chemistry not fully specified)”, which “FAM signals in trypsin-treated cells compared with intact cells” value [1] is on record?
Its value is “significantly lower FAM signals”.

And the “extended retention of liposomes” value [2]?
Its value is “up to 24 hours”.

What about the Kd [3] of the same substance?
Its Kd is 174 nM.

And the “FAM signals in HCECs under fluorescence microscope” value (“FAM signals in HCECs” below) [4]?
The value was “intensive FAM signals”.

Which Kd [5, 10] does the source give for “GACGACTTATGCTTGGGACCTGATCCGGACTACGGTGTCGTC [FAM-Cornea-S2]” here?
Its Kd is 174 nM.

With “GACGACGGCAAGGGGAAAGTGGTCGTAATCACGACGGTCGTCTTTTT [Cornea-S1-chol liposome]” as the substance, how does the Kd ([5]; 3'-cholesterol, inserted in CsA liposome (about 690 strands per liposome), polyvalent liposome on whole cells, PBS, room temperature) read?
The Kd was 1.2 nM.

How did the Kd [5, 10] turn out when “GACGACGGCAAGGGGAAAGTGGTCGTAATCACGACGGTCGTC [FAM-Cornea-S1]” was run?
The Kd was 362 nM.

benzalkonium chloride [BAC] was tested. Which “decrease in tear production” value [6] did it give?
Its value is 25-35%.

And the “reduction in TBUT compared to baseline” value [7]?
The value was 60-70%.

Which Kd ([5]; 3'-cholesterol, inserted in CsA liposome (about 690 strands per liposome), polyvalent liposome on whole cells, p92 gives 15.1 nM) does the source give for “GACGACTTATGCTTGGGACCTGATCCGGACTACGGTGTCGTCTTTTT [Cornea-S2-chol liposome]” here?
The Kd was 15 nM.

With “Cornea-S1: DNA aptamer from cornea tissue-SELEX, family 1: GACGACGGCAAGGGGAAAGTGGTCGTAATCACGACGGTCGTC (DNA, backbone not given here; further chemistry not fully specified)” as the substance, how does the “apparent Kd of liposome lower than that of the free aptamer” value [8] read?
The value was 300 fold.

And the “FAM signals in trypsin-treated cells compared with intact cells” value [1]?
The value was “significantly lower FAM signals”.

What about the “extended retention of liposomes” value [2] of the same substance?
The value was “up to 24 hours”.

And the Kd [3]?
Its Kd is 362 nM.

And the “FAM signals in HCECs” value ([4]; listed as Conrea-S1)?
Its value is “intensive FAM signals”.

And the “FAM signals in HCECs” value ([4]; listed as Corena-S1)?
The value was “observably higher than Conrea-S2 and S2.2 aptamer”.

And the “corneal fluorescein staining / corneal integrity” value [9]?
Its value is “markedly diminished to residual staining or isolated dots”.
